Experimental data as given in US7648978B2, “Small molecule modulators of cytokine activity” (Angion Biomedica Corp., priority 2004, dated 2010).

Experiments:
Type in all cases: cell-based
[1] = tested on: Endothelial cells (HUVECs); experiment: HUVEC proliferation (3H-thymidine incorporation); conditions: Homo sapiens, Table 1, read-out: HUVEC ED50
Description: (§1) a. Proliferation. The following assay was performed to assess the activity of the compounds of the invention in cell proliferation. Endothelial cells (HUVECs) were seeded in 96-well plates at a density of 10,000 cells per well in the normal growth medium (EGM-2-Clonetics) containing 2% fetal bovine serum, FGF, VEGF, IGF, ascorbic acid, EGF, GA, heparin and hydrocortisone. The cells were grown normally in the growth medium for 24 hr at 37° C. and 5% CO2. The cells were then rinsed with RPMI-1% BSA and starved for 1-2 hr. The stock solutions of the compounds of the invention were made at a concentration of 10 mg/ml in DMSO and diluted in RPMI-1% BSA at final concentrations of 0.001 uM to 50 uM. The cells were then washed and treated with the compounds and incubated for another 20 hr at 37° C. Then ^3H thymidine (0.5 microgram/ml in RPMI-BSA) was added to the cells and incubated at 37° C. for 4 hr. The unincorporated thymidine was removed by washing the cells four times with 1×PBS. Then the cells were lysed with 0.5M NaOH for 30 min and the radioactivity counted in the beta counter. A similar proliferation assay using monkey bronchial epithelial cells (4MBR-5) and oligodendrocyte cells was also employed.

oligodendrocytes = experiment: Oligodendrocyte proliferation; conditions: Mus musculus, Table 2, read-out: Oligodendrocyte ED50
Description: as §1
e. Stimulation of Oligodendrocyte Proliferation. Mouse primary oligodendrocytes (Celprogen, Calif.) were seeded in 96-well plates at 5000 cells/well in serum-free medium for 16 hours. Cells were treated with test compound or HGF/SF (positive control) for 16-24 hours. WST1 cell proliferation reagent (Roche, N.J.) was added to oligodendrocytes, and incubation was continued for another 4-5 hours. Cells with WST1 reagent were read using a plate reader at an OD of 490 nm.

monocytes / HUVECs = experiment: Monocyte migration and binding to CRP-treated HUVECs; VCAM-1 and MCP-1 expression; conditions: CRP 25 ug/ml, test compound 10 uM or HGF 50 ng/ml
Description: a. Compound treatment decreases monocyte migration and binding to ECs. […] HUVECs were incubated with CRP (25 ug/ml), CRP together with test compound (10 uM) or HGF (50 ng/ml). The cellular extracts with lysis buffer and analyzed for VCAM-1 and MCP-1 expression via Western blot analysis. For Monocyte binding and migration experiments, monocytes were labeled with a fluorescent dye Vybrant Did (Molecular Probes) and treated to the HUVECs treated as above.

Compound | EC50 [1] | further results
CC1CCCN(c2ccc(-c3n[nH]c(=O)c4ccccc34)cc2[N+](=O)[O-])C1 (stereo not shown) | 3 µM | 
O=c1[nH]nc(-c2ccc(N3CCCCCC3)c([N+](=O)[O-])c2)c2ccccc12 [drawing 57] |  | EC50 (oligodendrocytes): 0.2 µM
CCC1CCCCN1c1ccc(-c2n[nH]c(=O)c3ccccc23)cc1[N+](=O)[O-] (stereo not shown) | 3 µM | 
CC1CCCCN1c1ccc(-c2n[nH]c(=O)c3ccccc23)cc1[N+](=O)[O-] (stereo not shown) | 2 µM | 
CC1CCN(c2ccc(-c3n[nH]c(=O)c4ccccc34)cc2[N+](=O)[O-])CC1 [drawing 52] | 5 µM | 
HGF: Scatter factor / hepatocyte growth factor, a pleiotropic growth factor; used as positive control |  | monocyte migration and binding to endothelial cells (monocytes / HUVECs; FIG. 17): decreased; MCP-1 expression (monocytes / HUVECs; Western blot): decreased; VCAM-1 expression (monocytes / HUVECs; Western blot): decreased
CC1CCN(c2ccc(-c3n[nH]c(=O)c4ccccc34)cc2[N+](=O)[O-])CC1 [drawing 59] |  | EC50 (oligodendrocytes): 0.2 µM
O=c1[nH]nc(-c2ccc(N3CCCCC3)c([N+](=O)[O-])c2)c2ccccc12 [drawing 51] | 10 µM | 
CCCC1CCN(c2ccc(-c3n[nH]c(=O)c4ccccc34)cc2[N+](=O)[O-])CC1 | 4 µM | 
O=c1[nH]nc(-c2ccc(N3CCCCCC3)c([N+](=O)[O-])c2)c2ccccc12 [drawing 50] | 2.5 µM | 
O=c1[nH]nc(-c2ccc(N3CCCCC3)c([N+](=O)[O-])c2)c2ccccc12 [drawing 58] |  | EC50 (oligodendrocytes): 0.2 µM
